Data from US20260048062A1, “FUSED AMINO PYRIMIDINE COMPOUNDS FOR TREATMENT OF PSYCHOSIS AND PSYCHOTIC DISORDERS” (Ovid Therapeutics Inc., priority 2024, published 2026).

Experiments:
KCC4 = biological target: T1, KCC4 (Homo sapiens, UniProt Q9Y666); assay: Tl+ flux assay, HEK-293 cells expressing KCC4; assay type: cell-based; conditions: read-out: concentration at which effects on KCC4 were seen
T1 construct: expressed in transfected cells; host or cells: HEK-293
T1 sequence (Q9Y666 1-1083): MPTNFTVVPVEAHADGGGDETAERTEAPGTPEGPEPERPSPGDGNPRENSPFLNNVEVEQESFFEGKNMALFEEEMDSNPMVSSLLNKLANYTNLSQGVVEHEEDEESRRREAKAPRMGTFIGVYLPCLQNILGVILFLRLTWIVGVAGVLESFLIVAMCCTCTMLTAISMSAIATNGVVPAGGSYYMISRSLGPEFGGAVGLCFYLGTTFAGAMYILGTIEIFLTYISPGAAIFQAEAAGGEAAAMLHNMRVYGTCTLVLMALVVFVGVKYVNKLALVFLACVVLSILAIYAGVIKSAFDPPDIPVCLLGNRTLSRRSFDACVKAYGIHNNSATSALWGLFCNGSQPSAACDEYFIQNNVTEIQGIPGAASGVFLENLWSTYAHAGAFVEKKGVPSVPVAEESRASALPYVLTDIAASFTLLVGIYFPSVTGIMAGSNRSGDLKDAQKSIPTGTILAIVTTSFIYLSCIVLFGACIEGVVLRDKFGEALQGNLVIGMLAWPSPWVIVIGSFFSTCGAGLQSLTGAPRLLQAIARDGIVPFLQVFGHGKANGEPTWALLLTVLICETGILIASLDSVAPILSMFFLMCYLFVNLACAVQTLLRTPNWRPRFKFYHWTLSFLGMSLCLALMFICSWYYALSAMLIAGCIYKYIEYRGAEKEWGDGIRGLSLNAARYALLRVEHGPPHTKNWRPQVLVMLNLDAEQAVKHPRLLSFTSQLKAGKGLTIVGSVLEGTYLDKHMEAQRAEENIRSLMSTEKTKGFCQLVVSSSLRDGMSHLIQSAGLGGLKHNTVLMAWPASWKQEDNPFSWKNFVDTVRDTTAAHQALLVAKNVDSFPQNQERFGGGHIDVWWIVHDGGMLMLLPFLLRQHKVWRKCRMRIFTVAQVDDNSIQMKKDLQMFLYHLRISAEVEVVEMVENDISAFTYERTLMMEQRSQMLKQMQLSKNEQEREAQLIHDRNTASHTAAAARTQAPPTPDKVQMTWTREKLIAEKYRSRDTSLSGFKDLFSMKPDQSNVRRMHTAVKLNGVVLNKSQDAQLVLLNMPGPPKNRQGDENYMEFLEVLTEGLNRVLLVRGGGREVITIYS
Description: (§1) FLIPR TI Flux assay. HEK-293 cells were washed with HBSS, and then incubated with loading buffer containing TI sensitive fluorescent dye (https://www.moleculardevices.com), 20 μM bumetanide 20 μM ouabain and 2.5 mM probenecid for 1 h at room temperature (RT) under control conditions or with drugs in the dark using a FlexStation 3 microplate reader (Molecular Devices) and imaged […] for 30 min. Stimulus buffer was added containing 5 mM K^+/0.5 mM Tl^+ and cells were imaged every 1.5 over a 190 second time course The initial rate Tl^+ uptake (Relative Fluorescence Units (RFU) per second) was determined following addition of the stimulus buffer as outlined previously (Conway et al., 2017, supra) (Lee et al., 2022, supra).
(§2) Compared to KCC2, effects on KCC3, KCC4, and NKCC1 were only seen at concentrations more than 35-fold that of KCC2 (>100 μM) (FIG. 1G).

NKCC1 = biological target: T2, NKCC1 (Homo sapiens, UniProt P55011); assay: Tl+ flux assay, HEK-293 cells expressing NKCC1; assay type: cell-based; conditions: read-out: concentration at which effects on NKCC1 were seen
T2 construct: expressed in transfected cells; host or cells: HEK-293
T2 sequence (P55011 1-1212): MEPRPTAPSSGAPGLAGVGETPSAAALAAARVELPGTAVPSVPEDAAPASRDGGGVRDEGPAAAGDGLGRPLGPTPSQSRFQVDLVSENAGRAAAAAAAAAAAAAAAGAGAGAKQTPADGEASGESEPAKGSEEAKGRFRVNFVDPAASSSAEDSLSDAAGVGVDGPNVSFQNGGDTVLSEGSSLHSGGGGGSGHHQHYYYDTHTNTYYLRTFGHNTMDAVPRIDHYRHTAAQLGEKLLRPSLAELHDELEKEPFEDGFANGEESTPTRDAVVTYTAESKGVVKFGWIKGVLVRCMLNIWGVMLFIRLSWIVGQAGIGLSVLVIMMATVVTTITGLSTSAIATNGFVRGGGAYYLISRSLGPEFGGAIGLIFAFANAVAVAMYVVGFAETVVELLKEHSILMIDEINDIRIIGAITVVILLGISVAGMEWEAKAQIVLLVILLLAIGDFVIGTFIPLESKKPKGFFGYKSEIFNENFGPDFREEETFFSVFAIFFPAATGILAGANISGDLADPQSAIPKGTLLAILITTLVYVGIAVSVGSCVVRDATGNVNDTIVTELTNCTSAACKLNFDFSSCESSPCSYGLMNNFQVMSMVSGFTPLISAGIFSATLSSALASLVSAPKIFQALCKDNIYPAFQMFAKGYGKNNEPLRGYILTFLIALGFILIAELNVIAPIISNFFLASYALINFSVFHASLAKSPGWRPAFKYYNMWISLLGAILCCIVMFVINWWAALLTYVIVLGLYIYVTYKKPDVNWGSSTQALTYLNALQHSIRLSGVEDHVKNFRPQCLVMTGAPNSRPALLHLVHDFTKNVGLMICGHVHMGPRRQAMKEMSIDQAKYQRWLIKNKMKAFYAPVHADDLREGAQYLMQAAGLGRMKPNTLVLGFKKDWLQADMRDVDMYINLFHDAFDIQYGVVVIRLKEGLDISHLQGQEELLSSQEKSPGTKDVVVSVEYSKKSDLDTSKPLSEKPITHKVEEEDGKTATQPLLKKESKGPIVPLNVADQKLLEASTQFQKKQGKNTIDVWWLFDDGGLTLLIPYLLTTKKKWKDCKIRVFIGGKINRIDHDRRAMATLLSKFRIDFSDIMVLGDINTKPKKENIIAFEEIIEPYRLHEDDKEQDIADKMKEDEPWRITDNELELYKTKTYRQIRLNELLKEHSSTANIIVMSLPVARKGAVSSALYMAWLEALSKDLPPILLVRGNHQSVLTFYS
Description: as §1, §2

[1] = tested on: panel of 144 protein kinases; assay: SelectScreen panel of 144 protein kinases; assay type: biochemical; conditions: includes PKC isoforms, OSR1, SPAK (STK39), WNK
Description: Aliquots of HEK-293 cells expressing KCC2 were exposed to 30 μM SSA, heated from 37-55° C. The remaining level of soluble native KCC2 at each temperature was measured by immunoblotting and normalized to the level seen at 37° C. which was given a value of 1. […] This panel included protein kinase C isoforms, OSR1, SPAK (STK39) and with-no-lysine kinases (WNK), all of which phosphorylate KCC2 on multiple residues to indirectly modify its activity (Kahle et al., 2013, supra; Smalley et al., 2020, supra).

Structure (SMILES): C[C@@H]1CN(c2nc3c(c(Nc4ccc(C5CCCCC5)cc4)n2)COC3)CCO1 [Compound A, (R)—N-(4-cyclohexylphenyl)-2-(2-methylmorpholino)-5,7-dihydrofuro[3,4-d]pyrimidin-4-amine]
- EC50 (KCC4): > 100 µM
- EC50 (NKCC1): > 100 µM
- activity of a panel of 144 protein kinases [1]: did not modify the activity
